{
  "source": "patent US20240376154A1",
  "about": "“BIS-INTERCALATING PEPTIDES, CONJUGATES AND METHODS OF USE” (ZYMEWORKS BC INC., priority 2023, published 2024)",
  "key": {"[1]": {"test_system": "tumour cells (at least 4 of a panel of ovarian, breast, lung, pancreatic, placenta, colon cell lines)", "test": "In vitro cytotoxicity (cell proliferation, CellTiter-Glo), average over tumour cell line panel", "type": "cell-based", "conditions": "average pIC50 on all cell lines tested; 5 nights incubation; CellTiter-Glo", "experimental": "The ability of representative compounds of Formula I to inhibit proliferation of tumour cells in vitro was evaluated in at least 4 of the following cell lines: OVCAR-3 (ovarian, ATCC), SKOV-3 (ovarian, ATCC), IGROV-1 (ovarian, national research council of Canada (NRC)), OV-90 (ovarian, ATCC), OVKATE (Ovarian, Japanese Collection of Research Bioresources (JCRB) (JCRB1044)), JIMT-1 (breast, NRC), SK-BR-3 (breast, ATCC), T-47D (breast, ATCC), ZR-75-1 (breast, ATCC), MDA-MB-468 (breast, AddexBio), BT-20 (breast, ATCC), BT-474 (breast, NRC), MDA-MB-175 (breast, AddexBio), A549 (lung, collaborator), NCI-H226 (lung, NRC), NCI-H661 (lung, NRC), NCI-H1573 (lung, ATCC). NCI-H1563 (lung, ATCC), H358 (lung, collaborator), EBC-1 (lung, Xenotech), H1299 (lung, NRC), NCI-H292 (lung, ATCC), HCC817 (lung, ATCC), NCI-H441 (lung, ATCC), MIA-PaCa-2 (pancreatic, ATCC), BxPC-3 (pancreatic, ATCC), Panc-1 (pancreatic, ATCC), AsPC-1 (pancreatic, ATCC), JEG-3 (placenta, AddexBio), HT-29 (colon, ATCC).\nCells were cultured per vendor instructions and in log-phase growth were detached by brief incubation in 0.05% trypsin, then resuspended in respective culturing media at 20,000 cells/mL (except for ZR-75 cells, which were resuspended at 10,000 cells/mL). 50 μL/well (˜1000 cells/well) were transferred to sterile tissue culture (TC)-treated 384-well plates (ThermoFisher Scientific, Catalogue #164610) and incubated overnight at 37° C. with 5% CO2 to allow the cells to adhere to the plate surface. The next day, in a sterile, V-bottom, 96-well plate, test articles were titrated 1:3 in complete growth medium, creating a 10-point dose response titration with compounds at 3.5-times the desired final concentration. 20 μL from each dilution were added to the 384-well plate containing the seeded cells and these plates were incubated at 37° C. with 5% CO2 for 5 nights. Cell viability was quantified by first incubating with 15 μL/well of CellTiter-Glo® (Promega, Catalogue #G7572) for 30 minutes, then measuring luminescence with a microplate luminometer (BioTek® Synergy™ H1 Microplate Reader). IC50 values were determined by GraphPad Prism (GraphPad Software, San Diego, CA).\nThe results are presented in Table 7.1 and discussed in Example 7. Table 7.1 presents the results as average pIC50 values. pIC50=−log (IC50), thus, for example, pIC50=9 is equivalent to IC50=1 nM, and pIC50=6 is equivalent to IC50=1 μM."}, "herring sperm DNA": {"test_system": "herring sperm DNA", "test": "DNA melting temperature by differential scanning calorimetry (DSC)", "type": "binding", "conditions": "DSC; herring sperm DNA; DNA melting temperature = 68° C.", "experimental": "Representative compounds prepared as described in Example 2 were assessed in two complementary DNA-binding assays. Increased melting temperature of herring sperm DNA was measured using differential scanning calorimetry (DSC) and binding kinetics were determined by surface plasmon resonance (SPR) using a short DNA hairpin sequence.\nDSC experiments were conducted as described in Leng, 2003, Nucleic Acids Res., 31 (21): […], using a Nano DSC (TA Instruments, New Castle, DE) and analyzed using the NanoAnalyze™ software package. Herring sperm DNA solution (Invitrogen 15634017, 10 mg/mL) was diluted to 1 mg/mL (1.4 mM base pair) in BPE buffer (6 mM Na2HPO4, 2 mM NaH2PO4, 1 mM Na4EDTA, pH 7.0). Test articles (20 μL, 10 mM in DMSO) were added and allowed reach equilibrium binding (>3 h), any insoluble material was removed by low-speed centrifugation, then samples were heated from 25 to 110° C. at a scan rate of 1° C./min. Melting curves were plotted and melting temperature was determined using NanoAnalyze™."}, "[2]": {"test": "Lipophilicity by experimental HPLC retention time", "type": "physicochemical", "conditions": "HPLC retention time as measure of lipophilicity; C18, 10 to 90% CH3CN/H2O with 0.1% FA over 25 min", "experimental": "The ability to kill neighboring cells (i.e. bystander effect) is an important property for ADC payloads. For a payload comprising a compound of Formula I to be capable of bystander killing, membrane permeability (or transport) is required and the ability of compounds of Formula I to cross cell membranes and exert a cytotoxic effect was expected to be heavily influenced by lipophilicity.\nCompounds were analyzed using an Agilent 1260 HPLC (Agilent Technologies, Inc., Santa Clara, CA) equipped with a Diode array detector and using a Phenomenex Kinetex EVO C18 150×4.6, 2.6 μm column (Phenomenex, Torrance, CA), eluting with 10 to 90% CH3CN/H2O with 0.1% FA over 25 min."}},
  "data": [
    {"molecule": "CC(C)[C@H]1COC[C@@H](NC(=O)c2nc3ccccc3cc2O)C(=O)N2CCCC[C@H]2C(=O)NCC(=O)N(C)CC(=O)N(C)[C@@H](C(C)C)COC[C@@H](NC(=O)c2nc3ccccc3cc2O)C(=O)N2CCCC[C@H]2C(=O)NCC(=O)N(C)CC(=O)N1C", "note": "[Compound 172, N,N′-((7R,11S,19aS,26R,30S,38aS)-11,30-diisopropyl-12,15,31,34-tetramethyl-6,13,16,19,25,32,35,38-octaoxodotriacontahydro-2H,6H,10H,25H-dipyrido[2,1-b1: 2′,1′-l][1,17]dioxa[4,7,10,13,20,23,26,29]octaazacyclodotriacontine-7,26-diyl)bis(3-hydroxyquinoline-2-carboxamide)]", "values": [
      {"measurement": "pIC50 (average)", "setting": "[1]", "value": 7.9},
      {"measurement": "DNA melt (° C.)", "setting": "herring sperm DNA", "value": 91, "unit": "°C"},
      {"measurement": "HPLC", "setting": "[2]", "value": 18.2, "unit": "min"}
    ]},
    {"molecule": "CC(C)[C@H]1C(=O)NC[C@@H](NC(=O)c2nc3ccccc3cc2O)C(=O)N2CCCC[C@H]2C(=O)NCC(=O)N(C)CC(=O)N(C)[C@@H]([C@@H](C)O)C(=O)NC[C@@H](NC(=O)c2nc3ccccc3cc2O)C(=O)N2CCCC[C@H]2C(=O)NCC(=O)N(C)CC(=O)N1C", "note": "[Compound 55, N,N′-((7R,11S,19aS,26R,30S,38aS)-11-((R)-1-hydroxyethyl)-30-isopropyl-12,15,31,34-tetramethyl-6,10,13,16,19,25,29,32,35,38-decaoxohexatriacontahydro-2H,6H-dipyrido[1,2-a:1′,2′-q][1,4,7,10,13,17,20,23,26,29]decaazacyclodotriacontine-7,26-diyl)bis(3-hydroxyquinoline-2-carboxamide)]", "values": [
      {"measurement": "pIC50 (average)", "setting": "[1]", "value": "inactive"},
      {"measurement": "DNA melt (° C.)", "setting": "herring sperm DNA", "value": 86, "unit": "°C"},
      {"measurement": "HPLC", "setting": "[2]", "value": 10.6, "unit": "min"}
    ]},
    {"molecule": "CC(C)[C@H]1C(=O)NC[C@@H](NC(=O)c2nc3ccccc3cc2O)C(=O)N2CCCC[C@H]2C(=O)NCC(=O)N(C)CC(=O)N(C)[C@@H](C2CCCCC2)C(=O)NC[C@@H](NC(=O)c2nc3ccccc3cc2O)C(=O)N2CCCC[C@H]2C(=O)NCC(=O)N(C)CC(=O)N1C", "note": "[Compound 97, N,N′-((7R,11S,19aS,26R,30S,38aS)-11-cyclohexyl-30-isopropyl-12,15,31,34-tetramethyl-6,10,13,16,19,25,29,32,35,38-decaoxohexatriacontahydro-2H,6H-dipyrido[1,2-a:1′,2′-q][1,4,7,10,13,17,20,23,26,29]decaazacyclodotriacontine-7,26-diyl)bis(3-hydroxyquinoline-2-carboxamide)]", "values": [
      {"measurement": "pIC50 (average)", "setting": "[1]", "value": 8.4},
      {"measurement": "DNA melt (° C.)", "setting": "herring sperm DNA", "value": 86, "unit": "°C"},
      {"measurement": "HPLC", "setting": "[2]", "value": 18.9, "unit": "min"}
    ]},
    {"molecule": "CC(C)[C@H]1C(=O)NC[C@@H](NC(=O)c2nc3ccccc3cc2O)C(=O)N2CCCC[C@H]2C(=O)NCC(=O)N(C)CC(=O)N(C)[C@@H](C(C)C)C(=O)NC[C@@H](NC(=O)c2nc3ccccc3cc2O)C(=O)N2CCCC[C@H]2C(=O)NCC(=O)N(C)CC(=O)N1C", "note": "[Compound 35, N,N′-((7R,11S,19aS,26R,30S,38aS)-11,30-diisopropyl-12,15,31,34-tetramethyl-6,10,13,16,19,25,29,32,35,38-decaoxohexatriacontahydro-2H,6H-dipyrido[1,2-a:1′,2′-q][1,4,7,10,13,17,20,23,26,29]decaazacyclodotriacontine-7,26-diyl)bis(3-hydroxyquinoline-2-carboxamide)]", "values": [
      {"measurement": "pIC50 (average)", "setting": "[1]", "value": 7.3},
      {"measurement": "DNA melt (° C.)", "setting": "herring sperm DNA", "value": 88, "unit": "°C"},
      {"measurement": "HPLC", "setting": "[2]", "value": 17.1, "unit": "min"}
    ]},
    {"molecule": "CC(C)[C@H]1C(=O)NC[C@@H](NC(=O)c2nc3ccccc3cc2O)C(=O)N2CCCC[C@H]2C(=O)NCC(=O)N(C)CC(=O)N2CCCCC[C@H]2C(=O)NC[C@@H](NC(=O)c2nc3ccccc3cc2O)C(=O)N2CCCC[C@H]2C(=O)NCC(=O)N(C)CC(=O)N1C", "note": "[Compound 88, N,N′-((5aS,9R,15aS,24S,28R,34aS)-24-isopropyl-20,23,39-trimethyl-6,10,16,19,22,25,29,35,38,41-decaoxotetracontahydro-1H,12H-azepino[1,2-j]dipyrido[1,2-a:1′,2′-q][1,4,7,10,13,17,20,23,26,29]decaazacyclodotriacontine-9,28-diyl)bis(3-hydroxyquinoline-2-carboxamide)]", "values": [
      {"measurement": "pIC50 (average)", "setting": "[1]", "value": 8.5},
      {"measurement": "DNA melt (° C.)", "setting": "herring sperm DNA", "value": 88, "unit": "°C"},
      {"measurement": "HPLC", "setting": "[2]", "value": 16.4, "unit": "min"}
    ]},
    {"molecule": "CC(C)[C@H]1C(=O)NC[C@@H](NC(=O)c2nc3ccccc3cc2O)C(=O)N2CCCC[C@H]2C(=O)NCC(=O)N(C)CC(=O)N(C)[C@@H]([C@@H](C)OC(C)(C)C)C(=O)NC[C@@H](NC(=O)c2nc3ccccc3cc2O)C(=O)N2CCCC[C@H]2C(=O)NCC(=O)N(C)CC(=O)N1C", "note": "[Compound 54, N,N′-((7R,11S,19aS,26R,30S,38aS)-11-((R)-1-(tert-butoxy)ethyl)-30-isopropyl-12,15,31,34-tetramethyl-6,10,13,16,19,25,29,32,35,38-decaoxohexatriacontahydro-2H,6H-dipyrido[1,2-a:1′,2′-q][1,4,7,10,13,17,20,23,26,29]decaazacyclodotriacontine-7,26-diyl)bis(3-hydroxyquinoline-2-carboxamide)]", "values": [
      {"measurement": "pIC50 (average)", "setting": "[1]", "value": 8.1},
      {"measurement": "DNA melt (° C.)", "setting": "herring sperm DNA", "value": 88, "unit": "°C"},
      {"measurement": "HPLC", "setting": "[2]", "value": 18.4, "unit": "min"}
    ]},
    {"molecule": "CC(C)[C@H]1C(=O)N(C)C[C@@H](NC(=O)c2nc3ccccc3cc2O)C(=O)N2CCCC[C@H]2C(=O)NCC(=O)N(C)CC(=O)N(C)[C@@H](C(C)C)C(=O)N(C)C[C@@H](NC(=O)c2nc3ccccc3cc2O)C(=O)N2CCCC[C@H]2C(=O)NCC(=O)N(C)CC(=O)N1C", "note": "[Compound 42, N,N′-((7R,11S,19aS,26R,30S,38aS)-11,30-diisopropyl-9,12,15,28,31,34-hexamethyl-6,10,13,16,19,25,29,32,35,38-decaoxohexatriacontahydro-2H,6H-dipyrido[1,2-a:1′,2′-q][1,4,7,10,13,17,20,23,26,29]decaazacyclodotriacontine-7,26-diyl)bis(3-hydroxyquinoline-2-carboxamide)]", "values": [
      {"measurement": "pIC50 (average)", "setting": "[1]", "value": 7.3},
      {"measurement": "DNA melt (° C.)", "setting": "herring sperm DNA", "value": 88, "unit": "°C"},
      {"measurement": "HPLC", "setting": "[2]", "value": 17.7, "unit": "min"}
    ]},
    {"molecule": "CC(C)[C@H]1C(=O)NC[C@@H](NC(=O)c2nc3ccccc3cc2O)C(=O)N2CCCC[C@H]2C(=O)NCC(=O)N(C)CC(=O)N2CCC[C@H]2C(=O)NC[C@@H](NC(=O)c2nc3ccccc3cc2O)C(=O)N2CCCC[C@H]2C(=O)NCC(=O)N(C)CC(=O)N1C", "note": "[Compound 77]", "values": [
      {"measurement": "pIC50 (average)", "setting": "[1]", "value": 6.9},
      {"measurement": "DNA melt (° C.)", "setting": "herring sperm DNA", "value": 88, "unit": "°C"},
      {"measurement": "HPLC", "setting": "[2]", "value": 15.0, "unit": "min"}
    ]}
  ]
}
